Patent US12371464B2, “Polypeptides and uses thereof” (MEDIMMUNE LIMITED, priority 2020, dated 2025)
pEC50: −log10 of the molar value. Numbered stars: 1 amine (or outer) side, 2 acyl side, 3 side chain; on linkers, the order of the positions; unused ones are H or OH. Bridge positions count the residues as written; N and C are the ends. Square brackets hold non-standard residues; d marks the D form. Side chains are listed from the residue outwards. Ends that are not written are not given here. Peptide text beside a SMILES is read from it. * marks the point of attachment. C20 diacid = O=C(O)CCCCCCCCCCCCCCCCCCC(=O)*; C18 diacid = O=C(O)CCCCCCCCCCCCCCCCC(=O)*; γGlu = O=C(O)[C@H](CCC(=O)[*:2])N[*:1]; Aib = CC(C)(N)C(=O)O

Tests used:
[1] = biological target: T1, human calcitonin receptor (hCTR) (Homo sapiens, UniProt P30988); assay: cAMP production in 1321N1 cells with stable recombinant expression of human calcitonin receptor (hCTR); type: cell-based; conditions: 1321N1 cells expressing human calcitonin receptor
T1 construct: expressed in transfected cells
T1 sequence (P30988 25-474): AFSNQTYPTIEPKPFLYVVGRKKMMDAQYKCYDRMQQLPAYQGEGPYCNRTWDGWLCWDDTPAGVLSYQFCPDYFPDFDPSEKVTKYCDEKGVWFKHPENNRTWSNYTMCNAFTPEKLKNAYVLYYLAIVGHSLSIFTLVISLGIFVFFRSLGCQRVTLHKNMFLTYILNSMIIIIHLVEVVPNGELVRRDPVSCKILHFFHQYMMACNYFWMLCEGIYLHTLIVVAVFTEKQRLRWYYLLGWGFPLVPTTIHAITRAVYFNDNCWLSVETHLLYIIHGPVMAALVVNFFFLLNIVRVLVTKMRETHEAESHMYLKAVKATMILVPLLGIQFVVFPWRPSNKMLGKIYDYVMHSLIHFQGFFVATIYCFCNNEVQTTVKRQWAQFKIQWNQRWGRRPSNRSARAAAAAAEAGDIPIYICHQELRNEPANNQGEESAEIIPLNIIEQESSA
Experimental: (§1) The functional activities of lipidated pramlintide analogue peptides, such as cAMP production, were tested in 1321N1 cell line with stable recombinant expression of human calcitonin receptor (hCTR) or human amylin receptor (calcitonin receptor co-expressed with receptor activity modifying protein, RAMP3) (hAMYR3) or HEK cells with stable recombinant expression of rat calcitonin receptor (rat CTR) or rat amylin receptor (calcitonin receptor co-expressed with receptor activity modifying protein, RAMP3) (Rat AMYR3).
(§2) Cryopreserved cell stock was thawed rapidly in a water-bath, suspended in assay buffer (0.1% BSA (Sigma #A3059) in HBSS (Sigma #H8264) with 25 mM HEPES, pH 7.4 and containing 0.5 mM IB MX (Sigma #17018)) and spun at 240×g for 5 minutes. Cells were re-suspended in assay buffer at a batch-dependent optimized concentration (e.g. hCTR cells at 0.125×10^5 cells/mL, hAMYR3 cells at 0.125×10^5 cells/mL, rat CTR cells at 1×10^5 cells/mL, rat AMYR3 at 2×10^5 cells/mL).
(§3) The test peptide stock was prepared in DMSO and diluted in assay buffer to reach stated concentrations and transferred in duplicates into a 384-black shallow well microtitre assay plate (Corning #3676). Cells were added to the assay plate, incubated at room temperature for 30 minutes and the CAMP level measured using CAMP dynamic 2 HTRF kit (Cisbio, Cat #62AM4PEJ), following the two step protocol as per manufacturer's recommendations. The plates were read on an Envision (Perkin Elmer) using excitation wavelength of 320 nm and emission wavelengths of 620 nm & 665 nm.
(§4) Data was transformed to % Delta F as described in the manufacturer's guidelines and analyzed as percent activation of maximal amylin or calcitonin effect by 4-parameter logistic fit to determine EC50 values. The selectivity of a peptide to hAMYR vs hCTR is defined as a ratio of EC50 values at the two receptors.

[2] = biological target: T2, human amylin receptor (calcitonin receptor co-expressed with receptor activity modifying protein, RAMP3) (hAMYR3) (Homo sapiens, UniProt O60896+P30988); assay: cAMP production in 1321N1 cells with stable recombinant expression of human amylin receptor (hAMYR3); type: cell-based; conditions: for pEC50: cAMP production, 1321N1 cells expressing human amylin3 receptor
T2 construct: expressed in transfected cells
T2 sequence (P30988 25-474): T1 sequence (P30988 25-474)
T2 sequence (O60896 24-148 partner): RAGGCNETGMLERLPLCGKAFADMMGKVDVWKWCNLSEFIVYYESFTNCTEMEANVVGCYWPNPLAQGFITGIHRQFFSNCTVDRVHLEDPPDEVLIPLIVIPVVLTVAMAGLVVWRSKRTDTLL
Experimental: as §1, §2, §3, §4

[3] = cited from earlier work

CC[C@H](C)[C@H](NC(=O)[C@@H]1CCCN1C(=O)CNC(=O)[C@H](Cc1ccccc1)NC(=O)[C@H](CC(N)=O)NC(=O)C(C)(C)NC(=O)[C@H](CO)NC(=O)[C@H](CO)NC(=O)[C@H](Cc1c[nH]cn1)NC(=O)[C@@H](NC(=O)[C@H](CC(C)C)NC(=O)[C@H](Cc1ccccc1)NC(=O)[C@H](CC(N)=O)NC(=O)[C@H](C)NC(=O)[C@H](CC(C)C)NC(=O)[C@H](CCCNC(=N)N)NC(=O)[C@H](CCC(N)=O)NC(=O)[C@@H](NC(=O)[C@H](C)NC(=O)[C@@H]1CSSC[C@H](NC(=O)[C@H](CCCCN)NC(=O)CC[C@H](NC(=O)CCCCCCCCCCCCCCCCC(=O)O)C(=O)O)C(=O)N[C@@H](CC(N)=O)C(=O)N[C@@H]([C@@H](C)O)C(=O)N[C@@H](C)C(=O)N[C@@H]([C@@H](C)O)C(=O)N1)[C@@H](C)O)C(C)C)C(=O)N[C@@H](CC(C)C)C(=O)N1CCC[C@H]1C(=O)N1CCC[C@H]1C(=O)N[C@H](C(=O)N[C@@H](CCCNC(=N)N)C(=O)N[C@H](C(=O)NCC(=O)N[C@@H](CO)C(=O)N[C@@H](CC(N)=O)C(=O)N[C@H](C(=O)N[C@@H](Cc1ccc(O)cc1)C(N)=O)[C@@H](C)O)C(C)C)[C@@H](C)O [Peptide 71, C18diacid-γE-K[CNTATC]ATQRLANFLVHSS(Aib)NFGPILPPTRVGSNTY-amide] ({C18 diacid-γGlu}-KCNTATCATQRLANFLVHSS[Aib]NFGPILPPTRVGSNTY-NH2; disulfide 2-7)
pEC50 [1]: 8.86
Ratio (selectivity hAMYR vs hCTR, ratio of EC50 values at the two receptors) ([2]; EC50 hCTR / EC50 hAMYR3): 7
pEC50 [2]: 9.68

CC[C@H](C)[C@H](NC(=O)[C@H](C)NC(=O)[C@@H]1CCCN1C(=O)[C@H](Cc1ccccc1)NC(=O)[C@H](CC(N)=O)NC(=O)[C@@H]1CCCN1C(=O)[C@H](CO)NC(=O)[C@H](CO)NC(=O)[C@H](Cc1c[nH]cn1)NC(=O)[C@@H](NC(=O)[C@H](CC(C)C)NC(=O)[C@H](Cc1c[nH]c2ccccc12)NC(=O)[C@H](CC(N)=O)NC(=O)[C@H](C)NC(=O)[C@H](CC(C)C)NC(=O)[C@H](CCCNC(=N)N)NC(=O)[C@H](CCC(N)=O)NC(=O)[C@@H](NC(=O)[C@H](C)NC(=O)[C@@H]1CSSC[C@H](NC(=O)[C@@H](N)CCCCNC(=O)CC[C@H](NC(=O)CC[C@H](NC(=O)CCCCCCCCCCCCCCCCCCC(=O)O)C(=O)O)C(=O)O)C(=O)N[C@@H](CC(N)=O)C(=O)N[C@@H](C)C(=O)N[C@@H](C)C(=O)N[C@@H]([C@@H](C)O)C(=O)N1)[C@@H](C)O)C(C)C)C(=O)N[C@@H](CC(C)C)C(=O)N[C@@H](CO)C(=O)N1CCC[C@H]1C(=O)N[C@H](C(=O)N[C@@H](CC(N)=O)C(=O)N[C@H](C(=O)NCC(=O)N[C@@H](CO)C(=O)N[C@@H](CC(N)=O)C(=O)N[C@H](C(=O)N[C@@H](Cc1ccc(O)cc1)C(N)=O)[C@@H](C)O)C(C)C)[C@@H](C)O [Peptide 120] (H-K([γGlu-γGlu-C20 diacid])CNAATCATQRLANWLVHSSPNFPAILSPTNVGSNTY-NH2; disulfide 2-7; N-terminus assumed)
pEC50 [1]: 7.97
pEC50 [2]: 8.75

amylin (KCNTATCATQRLANFLVHSSNNFGAILSSTNVGSNTY; not fully specified (C-terminus, bridges); cysteine pairing not given here; UniProt P10997 34-70, looked up) [native peptide hormone of which pramlintide is a synthetic analogue]
terminal half-life of amylin in rats [3]: around 13 minutes
